target: JAK2 (Homo sapiens, UniProt O60674); assay: JAK2 Tyrosine Kinase Assay; type: biochemical; conditions: list of named compounds; read-out: IC50 in the JAK2 assay
Description: JAK2 Tyrosine Kinase Assay
The assays were performed in V-bottom 384-well plates. […] The reaction was initiated by the combination of JAK2 with substrates and test compounds. The reaction was incubated at room temperature for 60 min. and terminated by adding 45 μl of 35 mM EDTA to each sample. The reaction mixture was analyzed on the Caliper LabChip 3000 by electrophoretic separation of the fluorescent substrate and phosphorylated product. […] Compounds were dissolved at 10 mM in dimethylsulfoxide (DMSO) and evaluated at eleven concentrations, each in duplicate. IC50 values were derived by non-linear regression analysis

Chain of JAK2 (O60674 whole entry): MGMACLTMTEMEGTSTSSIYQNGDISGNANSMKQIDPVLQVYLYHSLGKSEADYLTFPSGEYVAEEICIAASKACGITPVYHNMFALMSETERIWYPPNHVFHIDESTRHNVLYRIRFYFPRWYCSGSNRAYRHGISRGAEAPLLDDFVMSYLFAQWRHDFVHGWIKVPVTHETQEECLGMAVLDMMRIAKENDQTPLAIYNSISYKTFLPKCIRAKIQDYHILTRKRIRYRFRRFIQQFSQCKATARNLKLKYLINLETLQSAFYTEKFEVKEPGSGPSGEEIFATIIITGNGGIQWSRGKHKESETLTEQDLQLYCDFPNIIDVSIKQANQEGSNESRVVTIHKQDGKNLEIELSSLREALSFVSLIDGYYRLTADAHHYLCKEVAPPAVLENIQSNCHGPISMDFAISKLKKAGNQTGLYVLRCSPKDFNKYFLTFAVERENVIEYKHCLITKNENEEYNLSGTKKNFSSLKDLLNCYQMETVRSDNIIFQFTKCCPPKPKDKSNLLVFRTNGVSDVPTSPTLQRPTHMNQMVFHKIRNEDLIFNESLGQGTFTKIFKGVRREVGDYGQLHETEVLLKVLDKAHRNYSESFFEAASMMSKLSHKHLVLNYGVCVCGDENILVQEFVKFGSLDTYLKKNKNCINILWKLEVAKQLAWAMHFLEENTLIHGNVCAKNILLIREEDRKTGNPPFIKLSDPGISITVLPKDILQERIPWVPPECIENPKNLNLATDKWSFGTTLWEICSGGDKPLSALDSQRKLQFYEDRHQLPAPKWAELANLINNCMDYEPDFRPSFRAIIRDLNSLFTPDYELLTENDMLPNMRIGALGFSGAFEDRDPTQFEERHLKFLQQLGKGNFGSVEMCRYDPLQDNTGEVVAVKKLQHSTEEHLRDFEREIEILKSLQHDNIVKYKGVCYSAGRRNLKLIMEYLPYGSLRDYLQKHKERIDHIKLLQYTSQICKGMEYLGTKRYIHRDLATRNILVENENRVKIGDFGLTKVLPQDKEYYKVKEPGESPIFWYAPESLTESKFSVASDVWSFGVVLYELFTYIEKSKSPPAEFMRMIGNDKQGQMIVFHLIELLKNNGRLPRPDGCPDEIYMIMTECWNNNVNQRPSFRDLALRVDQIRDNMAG

Row | Compound | IC50
1 | Cc1cc(Nc2nc(N3CCN(C(=O)c4ccccc4[N+](=O)[O-])CC3)nn3cccc23)n[nH]1 [N-(5-methyl-1H-pyrazol-3-yl)-2-(4-(2-nitrobenzoyl)-1-piperazinyl)pyrrolo[2,1-f][1,2,4]triazin-4-amine] | ≤ 5 nM
2 | Cc1cc(Nc2nc(N3CCN(C(=O)c4ccccc4Oc4ccccc4)CC3)nn3cccc23)n[nH]1 [N-(5-methyl-1H-pyrazol-3-yl)-2-(4-(2-phenoxybenzoyl)-1-piperazinyl)pyrrolo[2,1-f][1,2,4]triazin-4-amine] | ≤ 5 nM
3 | CCC(C(=O)N1CCN(c2nc(Nc3cc(C)[nH]n3)c3cccn3n2)CC1)c1ccccc1 (centres unmarked) [N-(5-methyl-1H-pyrazol-3-yl)-2-(4-(2-phenylbutanoyl)-1-piperazinyl)pyrrolo[2,1-f][1,2,4]triazin-4-amine] | ≤ 5 nM
4 | Cc1cc(Nc2nc(N3CCN(C(=O)c4cccc(C(F)(F)F)c4)CC3)nn3cccc23)n[nH]1 [N-(5-methyl-1H-pyrazol-3-yl)-2-(4-(3-(trifluoromethyl)benzoyl)-1-piperazinyl)pyrrolo[2,1-f][1,2,4]triazin-4-amine] | ≤ 5 nM
5 | Cc1cc(Nc2nc(N3CCN(C(=O)c4ccc(OC(F)(F)F)cc4)CC3)nn3cccc23)n[nH]1 [N-(5-methyl-1H-pyrazol-3-yl)-2-(4-(4-(trifluoromethoxy)benzoyl)-1-piperazinyl)pyrrolo[2,1-f][1,2,4]triazin-4-amine] | ≤ 5 nM
6 | Cc1cc(Nc2nc(N3CCN(C(=O)c4ccc(C(F)(F)F)cc4)CC3)nn3cccc23)n[nH]1 [N-(5-methyl-1H-pyrazol-3-yl)-2-(4-(4-(trifluoromethyl)benzoyl)-1-piperazinyl)pyrrolo[2,1-f][1,2,4]triazin-4-amine] | ≤ 5 nM
7 | Cc1cc(Nc2nc(N3CCN(C(=O)C4(C(F)(F)F)CCC4)CC3)nn3cccc23)n[nH]1 [N-(5-methyl-1H-pyrazol-3-yl)-2-(4-((1-(trifluoromethyl)cyclobutyl)carbonyl)-1-piperazinyl)pyrrolo[2,1-f][1,2,4]triazin-4-amine] | ≤ 5 nM
8 | Cc1cc(Nc2nc(N3CCN(C(=O)c4cccn4C)CC3)nn3cccc23)n[nH]1 [N-(5-methyl-1H-pyrazol-3-yl)-2-(4-((1-methyl-1H-pyrrol-2-yl)carbonyl)-1-piperazinyl)pyrrolo[2,1-f][1,2,4]triazin-4-amine] | ≤ 5 nM
9 | Cc1cc(Nc2nc(N3CCN(C(=O)C4(c5ccccc5)CCC4)CC3)nn3cccc23)n[nH]1 [N-(5-methyl-1H-pyrazol-3-yl)-2-(4-((1-phenylcyclobutyl)carbonyl)-1-piperazinyl)pyrrolo[2,1-f][1,2,4]triazin-4-amine] | ≤ 5 nM
10 | Cc1cc(Nc2nc(N3CCN(C(=O)C4(c5ccccc5)CCCC4)CC3)nn3cccc23)n[nH]1 [N-(5-methyl-1H-pyrazol-3-yl)-2-(4-((1-phenylcyclopentyl)carbonyl)-1-piperazinyl)pyrrolo[2,1-f][1,2,4]triazin-4-amine] | ≤ 5 nM
11 | Cc1cc(Nc2nc(N3CCN(C(=O)C4(c5ccccc5)CC4)CC3)nn3cccc23)n[nH]1 [N-(5-methyl-1H-pyrazol-3-yl)-2-(4-((1-phenylcyclopropyl)carbonyl)-1-piperazinyl)pyrrolo[2,1-f][1,2,4]triazin-4-amine] | ≤ 5 nM
12 | Cc1cc(Nc2nc(N3CCN(C(=O)Cc4ccccc4C(F)(F)F)CC3)nn3cccc23)n[nH]1 [N-(5-methyl-1H-pyrazol-3-yl)-2-(4-((2-(trifluoromethyl)phenyl)acetyl)-1-piperazinyl)pyrrolo[2,1-f][1,2,4]triazin-4-amine] | ≤ 5 nM
13 | Cc1cc(Nc2nc(N3CCN(C(=O)c4cccnc4C)CC3)nn3cccc23)n[nH]1 [N-(5-methyl-1H-pyrazol-3-yl)-2-(4-((2-methyl-3-pyridinyl)carbonyl)-1-piperazinyl)pyrrolo[2,1-f][1,2,4]triazin-4-amine] | ≤ 5 nM
14 | CC[C@H](C(=O)N1CCN(c2nc(Nc3cc(C)[nH]n3)c3cccn3n2)CC1)c1ccccc1 [N-(5-methyl-1H-pyrazol-3-yl)-2-(4-((2S)-2-phenylbutanoyl)-1-piperazinyl)pyrrolo[2,1-f][1,2,4]triazin-4-amine] | ≤ 5 nM
15 | CO[C@](C(=O)N1CCN(c2nc(Nc3cc(C)[nH]n3)c3cccn3n2)CC1)(c1ccccc1)C(F)(F)F [N-(5-methyl-1H-pyrazol-3-yl)-2-(4-((2S)-3,3,3-trifluoro-2-methoxy-2-phenylpropanoyl)-1-piperazinyl)pyrrolo[2,1-f][1,2,4]triazin-4-amine] | ≤ 5 nM
16 | Cc1cc(Nc2nc(N3CCN(C(=O)Cc4cccc(OC(F)(F)F)c4)CC3)nn3cccc23)n[nH]1 [N-(5-methyl-1H-pyrazol-3-yl)-2-(4-((3-(trifluoromethoxy)phenyl)acetyl)-1-piperazinyl)pyrrolo[2,1-f][1,2,4]triazin-4-amine] | ≤ 5 nM
17 | Cc1cc(Nc2nc(N3CCN(C(=O)Cc4cccc(C(F)(F)F)c4)CC3)nn3cccc23)n[nH]1 [N-(5-methyl-1H-pyrazol-3-yl)-2-(4-((3-(trifluoromethyl)phenyl)acetyl)-1-piperazinyl)pyrrolo[2,1-f][1,2,4]triazin-4-amine] | ≤ 5 nM
18 | Cc1cc(Nc2nc(N3CCN(C(=O)Cc4ccc(OC(F)(F)F)cc4)CC3)nn3cccc23)n[nH]1 [N-(5-methyl-1H-pyrazol-3-yl)-2-(4-((4-(trifluoromethoxy)phenyl)acetyl)-1-piperazinyl)pyrrolo[2,1-f][1,2,4]triazin-4-amine] | ≤ 5 nM
19 | Cc1csc(C(=O)N2CCN(c3nc(Nc4cc(C)[nH]n4)c4cccn4n3)CC2)c1 [N-(5-methyl-1H-pyrazol-3-yl)-2-(4-((4-methyl-2-thienyl)carbonyl)-1-piperazinyl)pyrrolo[2,1-f][1,2,4]triazin-4-amine] | ≤ 5 nM
20 | Cc1ccc(C(=O)N2CCN(c3nc(Nc4cc(C)[nH]n4)c4cccn4n3)CC2)cn1 [N-(5-methyl-1H-pyrazol-3-yl)-2-(4-((6-methyl-3-pyridinyl)carbonyl)-1-piperazinyl)pyrrolo[2,1-f][1,2,4]triazin-4-amine] | ≤ 5 nM
21 | Cc1cc(Nc2nc(N3CCN(C(=O)Cc4ccccc4)CC3)nn3cccc23)n[nH]1 [N-(5-methyl-1H-pyrazol-3-yl)-2-(4-(phenylacetyl)-1-piperazinyl)pyrrolo[2,1-f][1,2,4]triazin-4-amine] | ≤ 5 nM
22 | CCCCC(=O)N1CCN(c2nc(Nc3cc(C)[nH]n3)c3cccn3n2)CC1 [N-(5-methyl-1H-pyrazol-3-yl)-2-(4-pentanoyl-1-piperazinyl)pyrrolo[2,1-f][1,2,4]triazin-4-amine] | ≤ 5 nM
23 | Cc1cc(Nc2nc(N3CCN(C(=O)C(NC(=O)OC(C)(C)C)c4ccc(Cl)cc4)CC3)nn3cccc23)n[nH]1 (centres unmarked) [tert-butyl (1-(4-chlorophenyl)-2-(4-(4-((5-methyl-1H-pyrazol-3-yl)amino)pyrrolo[2,1-f][1,2,4]triazin-2-yl)-1-piperazinyl)-2-oxoethyl)carbamate] | ≤ 5 nM
24 | Cc1cc(Nc2nc(N3CCN(C(=O)C4(NC(=O)OC(C)(C)C)CCc5ccccc54)CC3)nn3cccc23)n[nH]1 (centres unmarked) [tert-butyl (1-((4-(4-((5-methyl-1H-pyrazol-3-yl)amino)pyrrolo[2,1-f][1,2,4]triazin-2-yl)-1-piperazinyl)carbonyl)-2,3-dihydro-1H-inden-1-yl)carbamate] | ≤ 5 nM
25 | Cc1cc(Nc2nc(N3CCN(C(=O)c4ccccc4NC(=O)OC(C)(C)C)CC3)nn3cccc23)n[nH]1 [tert-butyl (2-((4-(4-((5-methyl-1H-pyrazol-3-yl)amino)pyrrolo[2,1-f][1,2,4]triazin-2-yl)-1-piperazinyl)carbonyl)phenyl)carbamate] | ≤ 5 nM
26 | Cc1cc(Nc2nc(N3CCN(C(=O)[C@@H](NC(=O)OC(C)(C)C)c4ccc(F)cc4)CC3)nn3cccc23)n[nH]1 [tert-butyl((1S)-1-(4-fluorophenyl)-2-(4-(4-((5-methyl-1H-pyrazol-3-yl)amino)pyrrolo[2,1-f][1,2,4]triazin-2-yl)-1-piperazinyl)-2-oxoethyl)carbamate] | ≤ 5 nM

— patent US8445676B2, “Pyrrolotriazine kinase inhibitors” (Bristol-Myers Squibb Company, priority 2008, dated 2013)
